# PubChem BioAssay (NCI)
#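 Each compound was tested at five concentrations against cells in 96-well plates for 48 hours. GI50 marks 50% less growth. TGI marks complete inhibition of growth.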
# Tests used:
# Test in all cases: NCI tumour cell line growth inhibition, 48 h
# K-562 leukemia = system: K-562 leukemia
# OVCAR-5 ovarian = system: OVCAR-5 ovarian
# MDA-MB-231 breast = system: MDA-MB-231 breast
# MOLT-4 leukemia = system: MOLT-4 leukemia
# PC-3 prostate = system: PC-3 prostate
# SK-MEL-2 melanoma = system: SK-MEL-2 melanoma
# RXF 393 renal = system: RXF 393 renal
# HCC-2998 colon = system: HCC-2998 colon
# TK-10 renal = system: TK-10 renal
# UO-31 renal = system: UO-31 renal
# CAKI-1 renal = system: CAKI-1 renal
# SF-539 CNS = system: SF-539 CNS
# IGROV1 ovarian = system: IGROV1 ovarian
# NCI-H522 lung = system: NCI-H522 lung
# HS 578T breast = system: HS 578T breast
# HCT-116 colon = system: HCT-116 colon
# HL-60(TB) leukemia = system: HL-60(TB) leukemia
# SF-295 CNS = system: SF-295 CNS
# MCF7 breast = system: MCF7 breast
# SF-268 CNS = system: SF-268 CNS
# HCT-15 colon = system: HCT-15 colon
# OVCAR-8 ovarian = system: OVCAR-8 ovarian
# NCI-H460 lung = system: NCI-H460 lung
# COLO 205 colon = system: COLO 205 colon
# U251 CNS = system: U251 CNS
# HOP-62 NSCLC = system: HOP-62 NSCLC
# DU-145 prostate = system: DU-145 prostate
# SNB-75 CNS = system: SNB-75 CNS
# LOX IMVI melanoma = system: LOX IMVI melanoma
# SW-620 colon = system: SW-620 colon
# EKVX NSCLC = system: EKVX NSCLC
# MALME-3M melanoma = system: MALME-3M melanoma
# A549 NSCLC = system: A549 NSCLC
# HOP-92 NSCLC = system: HOP-92 NSCLC
# ACHN renal = system: ACHN renal
# UACC-257 melanoma = system: UACC-257 melanoma
# T-47D breast = system: T-47D breast
# SK-MEL-5 melanoma = system: SK-MEL-5 melanoma
# BT-549 breast = system: BT-549 breast
# OVCAR-3 ovarian = system: OVCAR-3 ovarian
# OVCAR-4 ovarian = system: OVCAR-4 ovarian
# M14 melanoma = system: M14 melanoma
# NCI-H23 lung = system: NCI-H23 lung
# SNB-19 CNS = system: SNB-19 CNS
# RPMI-8226 leukemia = system: RPMI-8226 leukemia
# MDA-MB-468 breast = system: MDA-MB-468 breast
# CCRF-CEM leukemia = system: CCRF-CEM leukemia
# UACC-62 melanoma = system: UACC-62 melanoma
# A498 renal = system: A498 renal
# KM12 colon = system: KM12 colon
# SR leukemia = system: SR leukemia
# HT29 colon = system: HT29 colon
# 786-0 renal = system: 786-0 renal
# SN12C renal = system: SN12C renal
# SK-MEL-28 melanoma = system: SK-MEL-28 melanoma
# MDA-MB-435 = system: MDA-MB-435
# NCI-H226 lung = system: NCI-H226 lung
# SK-OV-3 ovarian = system: SK-OV-3 ovarian
smiles,measurement,setting,value
O=C(c1ccc(O)cc1)C1[C@H](c2ccc(Br)cc2)[C@@H](c2ccccc2)NC12C(=O)Nc1ccccc12 (stereo partly specified),GI50,K-562 leukemia,8.24 µM
same,TGI,K-562 leukemia,21.8 µM
same,GI50,OVCAR-5 ovarian,5.67 µM
same,TGI,OVCAR-5 ovarian,10.8 µM
same,GI50,MDA-MB-231 breast,4.93 µM
same,TGI,MDA-MB-231 breast,9.87 µM
same,GI50,MOLT-4 leukemia,3.99 µM
same,TGI,MOLT-4 leukemia,13.4 µM
same,GI50,PC-3 prostate,5.09 µM
same,TGI,PC-3 prostate,12.3 µM
same,GI50,SK-MEL-2 melanoma,6.14 µM
same,TGI,SK-MEL-2 melanoma,11.5 µM
same,GI50,RXF 393 renal,5.29 µM
same,TGI,RXF 393 renal,10.5 µM
same,GI50,HCC-2998 colon,5.87 µM
same,TGI,HCC-2998 colon,11.4 µM
same,GI50,TK-10 renal,5.68 µM
same,TGI,TK-10 renal,11.3 µM
same,GI50,UO-31 renal,3.99 µM
same,TGI,UO-31 renal,8.53 µM
same,GI50,CAKI-1 renal,4.67 µM
same,TGI,CAKI-1 renal,9.8 µM
same,GI50,SF-539 CNS,6.41 µM
same,TGI,SF-539 CNS,11.7 µM
same,GI50,IGROV1 ovarian,5.21 µM
same,TGI,IGROV1 ovarian,10.4 µM
same,GI50,NCI-H522 lung,5.82 µM
same,TGI,NCI-H522 lung,11.7 µM
same,GI50,HS 578T breast,6.63 µM
same,TGI,HS 578T breast,15.9 µM
same,GI50,HCT-116 colon,5.51 µM
same,TGI,HCT-116 colon,10.8 µM
same,GI50,HL-60(TB) leukemia,7.46 µM
same,TGI,HL-60(TB) leukemia,18.9 µM
same,GI50,SF-295 CNS,5.93 µM
same,TGI,SF-295 CNS,11.3 µM
same,GI50,MCF7 breast,6.41 µM
same,TGI,MCF7 breast,15.4 µM
same,GI50,SF-268 CNS,5.73 µM
same,TGI,SF-268 CNS,12.5 µM
same,GI50,HCT-15 colon,6.17 µM
same,TGI,HCT-15 colon,13 µM
same,GI50,OVCAR-8 ovarian,6.28 µM
same,TGI,OVCAR-8 ovarian,12.2 µM
same,GI50,NCI-H460 lung,6.08 µM
same,TGI,NCI-H460 lung,11.9 µM
same,GI50,COLO 205 colon,6.88 µM
same,TGI,COLO 205 colon,14.1 µM
same,GI50,U251 CNS,6.19 µM
same,TGI,U251 CNS,11.6 µM
same,GI50,HOP-62 NSCLC,5.88 µM
same,TGI,HOP-62 NSCLC,11.5 µM
same,GI50,DU-145 prostate,6.85 µM
same,TGI,DU-145 prostate,12.9 µM
same,GI50,SNB-75 CNS,4.21 µM
same,TGI,SNB-75 CNS,11.7 µM
same,GI50,LOX IMVI melanoma,4.93 µM
same,TGI,LOX IMVI melanoma,10.6 µM
same,GI50,SW-620 colon,6.63 µM
same,TGI,SW-620 colon,12.9 µM
same,GI50,EKVX NSCLC,5.92 µM
same,TGI,EKVX NSCLC,14 µM
same,GI50,MALME-3M melanoma,5.75 µM
same,TGI,MALME-3M melanoma,10.9 µM
same,GI50,A549 NSCLC,4.84 µM
same,TGI,A549 NSCLC,10.2 µM
same,GI50,HOP-92 NSCLC,5.36 µM
same,TGI,HOP-92 NSCLC,10.9 µM
same,GI50,ACHN renal,5.69 µM
same,TGI,ACHN renal,10.8 µM
same,GI50,UACC-257 melanoma,6.1 µM
same,TGI,UACC-257 melanoma,11.8 µM
same,GI50,T-47D breast,5.14 µM
same,TGI,T-47D breast,12.2 µM
same,GI50,SK-MEL-5 melanoma,6.6 µM
same,TGI,SK-MEL-5 melanoma,12.1 µM
same,GI50,BT-549 breast,6.02 µM
same,TGI,BT-549 breast,11.4 µM
same,GI50,OVCAR-3 ovarian,6.51 µM
same,TGI,OVCAR-3 ovarian,12 µM
same,GI50,OVCAR-4 ovarian,6.21 µM
same,TGI,OVCAR-4 ovarian,12.9 µM
same,GI50,M14 melanoma,5.63 µM
same,TGI,M14 melanoma,11.3 µM
same,GI50,NCI-H23 lung,6.38 µM
same,TGI,NCI-H23 lung,12.6 µM
same,GI50,SNB-19 CNS,5.92 µM
same,TGI,SNB-19 CNS,11.1 µM
same,GI50,RPMI-8226 leukemia,7.97 µM
same,TGI,RPMI-8226 leukemia,25.2 µM
same,GI50,MDA-MB-468 breast,6.1 µM
same,TGI,MDA-MB-468 breast,12.2 µM
same,GI50,CCRF-CEM leukemia,7.07 µM
same,TGI,CCRF-CEM leukemia,16.1 µM
same,GI50,UACC-62 melanoma,5.13 µM
same,TGI,UACC-62 melanoma,10.1 µM
same,GI50,A498 renal,5.83 µM
same,TGI,A498 renal,11.3 µM
same,GI50,KM12 colon,6.31 µM
same,TGI,KM12 colon,12.6 µM
same,GI50,SR leukemia,5.18 µM
same,TGI,SR leukemia,12.6 µM
same,GI50,HT29 colon,5.87 µM
same,TGI,HT29 colon,12 µM
same,GI50,786-0 renal,5.83 µM
same,TGI,786-0 renal,11.2 µM
same,GI50,SN12C renal,5.69 µM
same,TGI,SN12C renal,10.8 µM
same,GI50,SK-MEL-28 melanoma,6.21 µM
same,TGI,SK-MEL-28 melanoma,11.5 µM
same,GI50,MDA-MB-435,6.53 µM
same,TGI,MDA-MB-435,12.3 µM
same,GI50,NCI-H226 lung,5.31 µM
same,TGI,NCI-H226 lung,11 µM
same,GI50,SK-OV-3 ovarian,6.67 µM
same,TGI,SK-OV-3 ovarian,13.3 µM
